Data as given in patent publication US20140316217A1, “SYSTEM AND METHOD FOR MONITORING ANESTHESIA AND SEDATION USING MEASURES OF BRAIN COHERENCE AND SYNCHRONY” (priority 2013, published 2014).
Several values for one entry are separate records, joined by “and”; a condition that tells them apart may be missing. Equal values may be shown once.

Key:
volunteers [1] = details: for frequency range of increase in coherence on the coherogram compared to baseline: sedation
volunteers [2] = details: for frequency range of increased power in the spectrogram compared to baseline: sedation, visually evident
Excerpt: (§1) The power spectral density, also referred to as the power spectrum or spectrum, quantifies the frequency distribution of energy or power within a signal. The spectrogram is a time-varying version of the spectrum. […] In these spectrograms, frequencies are arranged along the y-axis, and time along the x-axis, and power is indicated by color on a decibel (dB) scale. […] Spectra and spectrograms were computed using the multitaper method, implemented in the Chronux toolbox (http://chronux.orq). The multitaper method was chosen specifically because it allows the spectral resolution to be set precisely, which is desirable in observing many anesthesia-related phenomena. Moreover, for a particular choice of spectral resolution, the multitaper method offers lower bias and lower variance than traditional nonparametric spectral estimation methods.
(§2) Group-level spectrograms were computed by taking the median across volunteers. Spectra were also calculated for selected EEG epochs. The resulting spectra were then averaged for all epochs, and 95% confidence intervals were computed via taper-based jackknife techniques. The spectral analysis parameters included window length T=4 s with 0 s overlap, time-bandwidth product TW=3, number of tapers K=5, and spectral resolution 2 W of 1.5 Hz. Peak power, and its frequency, was estimated for the dex-spindle, travelling peak, and frontal alpha oscillations for each individual subject. Averages across subjects were performed to obtain the group-level peak power and frequency for these oscillations.
(§3) To compare spectral and coherence estimates between groups, jackknife-based methods were used, namely the two-group test for spectra (TGTS), and the two-group test for coherence (TGTC), as implemented by the Chronux toolbox (http://www.chronukorg). This method accounts for the underlying spectral resolution of the spectral and coherence estimates, and considers differences to be significant if they are present for contiguous frequencies over a range greater than the spectral resolution 2 W. Specifically, for frequencies f>2 W, the null hypothesis was rejected only if the test statistic exceeded the significance threshold over a contiguous frequency range ≧2 W. For frequencies 0≦f≦2 W, to account for the properties of multitaper spectral estimates at frequencies close to zero, the null hypothesis was rejected only if the test statistic exceeded the significance threshold over a contiguous frequency range from 0 to max(f,W)≦2 W. A significance threshold of p<0.05 was selected for within group comparisons and p<0.001 for between group comparisons, applying a Bonferonni correction for multiple comparisons where appropriate.
Volunteers were instructed to close their eyes throughout the study to avoid eye-blink artifacts in the EEG. Volunteers were presented with auditory stimuli during the study and asked to respond by button presses to assess the level of conscious behavior. The stimuli consisted of the volunteer's name presented every two minutes. Button-press stimuli were recorded using a custom-built computer mouse with straps fitted to hold the first and second fingers in place over the mouse buttons. The mouse was also lightly strapped to the subject's hand using tape and an arterial line board to ensure that responses could be recorded accurately.
We applied an anti-aliasing filter and down-sampled the EEG data to 250 Hz before analysis. EEG signals were re-montaged to a nearest-neighbor Laplacian reference, using distances along the scalp surface to weigh neighboring electrode contributions. First, 2-minute EEG segments were selected from all subjects during the awake, eyes closed baseline. Eye closure facilitates distinguishing between normal awake, eyes-closed occipital alpha oscillations and the frontal alpha oscillations associated with anesthesia induced altered arousal. EEG data segments were selected based on the behavioral response.

patient = details: anesthetized with ketamine alone or in combination with other anesthetic agents; cited from earlier work
[3] = tested on: dopaminergic arousal pathway; experiment: Methylphenidate-induced emergence from isoflurane general anesthesia; plethysmography and blood gas experiments; type: in vivo
Excerpt: MPH can be used to restore consciousness, induce electroencephalogram changes consistent with arousal, and increase respiratory drive. The behavioral and respiratory effects induced by methylphenidate can be inhibited by droperidol, supporting the evidence that methylphenidate induces arousal by activating a dopaminergic arousal pathway.

patients [4] = experiment: Frontal EEG coherence analysis during sevoflurane and propofol general anesthesia (patients, Sedline monitor); type: in vivo, human
patients [5] = experiment: Frontal EEG spectral analysis during sevoflurane and propofol general anesthesia (patients, Sedline monitor); type: in vivo, human; details: mean±std
Excerpt: as §1, §2, §3

[6] = dexmedetomidine sedation, propofol-induced unconsciousness
[7] = dexmedetomidine sedation, mean±std
[8] = propofol-induced unconsciousness, dexmedetomidine sedation
[9] = general anesthesia, P<0.001 TGTC
[10] = propofol-induced unconsciousness

In the case of `Cc1cccc([C@H](C)c2cnc[nH]2)c1C` [dexmedetomidine], the “coherence peak frequency (dex-spindle)” value (volunteers [1]; dexmedetomidine sedation) was 13.3 Hz, the “peak coherence (dex-spindle)” value (volunteers [1]; dexmedetomidine sedation) was 0.78±0.08 and the “frequency range of decrease in coherence on the coherogram compared to baseline” value (volunteers [1]; [6]) was 0.1-1 Hz. The “frequency range of increase in coherence on the coherogram compared to baseline” value (volunteers [1]) was 1-15 Hz, the “frequency range in which EEG power was lower than baseline” value (volunteers [2]; dexmedetomidine sedation, P<0.05 TGTS) was 17.4-40 Hz and the “dex-spindle oscillation peak frequency (EEG power)” value (volunteers [2]; [7]) was 13.1 Hz and ~13 Hz. For the same molecule, the “dex-spindle oscillation peak power” value (volunteers [2]; [7]) was −10.2 dB, the “frequency at which maximum power and coherence of spindles occur” value (volunteers [2]; dexmedetomidine sedation, summary) was 13-14 Hz and the slow oscillations power (volunteers [2]; [8]) was 1.8 dB. For the same molecule, the “frequency range of increased power in the spectrogram compared to baseline” value (volunteers [2]) was 2-15 Hz.
In the case of `CNC1(c2ccccc2Cl)CCCCC1=O` (centres unmarked) [ketamine], the BIS values (patient) is listed as “high BIS values”.
With `COC(=O)C(c1ccccc1)C1CCCCN1` (centres unmarked) [methylphenidate] the “emergence from general anesthesia” value ([3]; isoflurane general anesthesia) was “actively induces emergence from isoflurane general anesthesia” and the minute ventilation ([3]; plethysmography and blood gas experiments) was “increases minute ventilation”.
In the case of `CC(C)c1cccc(C(C)C)c1O` [propofol], the “alpha oscillation coherence peak frequency” value (patients [4]; general anesthesia) was 10.2 Hz, the “frequency range in which propofol exhibited increased EEG coherence versus sevoflurane” value (patients [4]; [9]) was 11.7-19.5 Hz and the “alpha oscillation peak coherence” value (patients [4]; propofol general anesthesia) was 0.71 dB. The “frequency range in which coherence was higher during propofol-induced unconsciousness than dexmedetomidine sedation” value (volunteers [1]; P<0.0005 TGTC) was 9.5-11.7 Hz, the “frequency ranges in which coherence was larger during propofol-induced sedation than dexmedetomidine sedation” value (volunteers [1]; P<0.0005 TGTC) was 19.8-26.4 Hz and 26.9-29.3 Hz and the “frequency range of decrease in coherence on the coherogram compared to baseline” value (volunteers [1]; [6]) was 0.1-1 Hz. For the same molecule, the “frequency range of decreased slow oscillation coherence versus baseline” value (volunteers [1]; propofol peak max (unconsciousness), P<0.025 TGTC) was 0.1-1.7 Hz, the “coherence peak frequency (traveling-peak)” value (volunteers [1]; propofol sedation) was 16.1 Hz and the “peak coherence (traveling-peak)” value (volunteers [1]; propofol sedation) was 0.69±0.05. For the same molecule, the “alpha oscillation peak coherence” value (volunteers [1]; [10]) was 0.85±0.05, the “centre of the narrow band of alpha oscillation coherence” value (volunteers [1]; [10]) was ~10 Hz and the “frequency range of significant increase in coherence versus baseline” value (volunteers [1]; propofol-induced unconsciousness, P<0.025 TGTC) was 4-15.9 Hz. The “frequency range of increase in coherence on the coherogram compared to baseline” value (volunteers [1]) was 1-25 Hz, the “frontal alpha oscillations power” value (volunteers [2]; [10]) was 2.5 dB and the “size of slow oscillations compared with dexmedetomidine sedation” value (volunteers [2]; [10]) was “almost an order of magnitude larger”. For the same molecule, the slow oscillations power (volunteers [2]; [8]) was 19.2 dB, the “frequency range of increased power in the spectrogram compared to baseline” value (volunteers [2]) was 1-25 Hz and the “alpha oscillation peak frequency (EEG power)” value (patients [5]) was 10.3 Hz. The “alpha oscillation peak power” value (patients [5]) was 2.1 dB.
For `FCOC(C(F)(F)F)C(F)(F)F` [sevoflurane], the “alpha oscillation coherence peak frequency” value (patients [4]; general anesthesia) was 9.8 Hz, the “theta coherence peak frequency” value (patients [4]; general anesthesia) was 4.9 Hz and the theta peak coherence (patients [4]; general anesthesia) was 0.58±0.1. The “frequency range in which sevoflurane exhibited increased EEG coherence versus propofol” value (patients [4]; [9]) was 3.41-10.7 Hz, the “frequency at which maximum power and coherence of coherent alpha oscillations occur” value (patients [4]; general anesthesia, summary) was 10-12 Hz and the “frequency of coherent theta oscillations” value (patients [4]; sevoflurane anesthesia) was ~5 Hz. The “alpha oscillation peak coherence” value (patients [4]; sevoflurane general anesthesia) was 0.73±0.1, the “alpha oscillation peak frequency (EEG power)” value (patients [5]) was 9.2 Hz and the “alpha oscillation peak power” value (patients [5]) was 4.3 dB.
